Test results published in PMC12062220, “Unveiling the role of Ndrg1 gene on the oxidative stress induction behind the anticancer potential of styrylquinazoline derivatives” (Scientific Reports, 2025).

Assays:
Experiment in all cases: ADP-Glo kinase assay (Promega), % inhibition at […]
Type in all cases: biochemical
HER2 = biological target: T1, HER2 (Homo sapiens, UniProt P04626)
T1 construct: gene ERBB2

[1] = biological target: insulin-like growth factor 1 receptor (IGF1R) (Homo sapiens, UniProt P08069)
EGFR = EGFR (Homo sapiens, UniProt P00533)
Chain of EGFR (P00533 25-1210): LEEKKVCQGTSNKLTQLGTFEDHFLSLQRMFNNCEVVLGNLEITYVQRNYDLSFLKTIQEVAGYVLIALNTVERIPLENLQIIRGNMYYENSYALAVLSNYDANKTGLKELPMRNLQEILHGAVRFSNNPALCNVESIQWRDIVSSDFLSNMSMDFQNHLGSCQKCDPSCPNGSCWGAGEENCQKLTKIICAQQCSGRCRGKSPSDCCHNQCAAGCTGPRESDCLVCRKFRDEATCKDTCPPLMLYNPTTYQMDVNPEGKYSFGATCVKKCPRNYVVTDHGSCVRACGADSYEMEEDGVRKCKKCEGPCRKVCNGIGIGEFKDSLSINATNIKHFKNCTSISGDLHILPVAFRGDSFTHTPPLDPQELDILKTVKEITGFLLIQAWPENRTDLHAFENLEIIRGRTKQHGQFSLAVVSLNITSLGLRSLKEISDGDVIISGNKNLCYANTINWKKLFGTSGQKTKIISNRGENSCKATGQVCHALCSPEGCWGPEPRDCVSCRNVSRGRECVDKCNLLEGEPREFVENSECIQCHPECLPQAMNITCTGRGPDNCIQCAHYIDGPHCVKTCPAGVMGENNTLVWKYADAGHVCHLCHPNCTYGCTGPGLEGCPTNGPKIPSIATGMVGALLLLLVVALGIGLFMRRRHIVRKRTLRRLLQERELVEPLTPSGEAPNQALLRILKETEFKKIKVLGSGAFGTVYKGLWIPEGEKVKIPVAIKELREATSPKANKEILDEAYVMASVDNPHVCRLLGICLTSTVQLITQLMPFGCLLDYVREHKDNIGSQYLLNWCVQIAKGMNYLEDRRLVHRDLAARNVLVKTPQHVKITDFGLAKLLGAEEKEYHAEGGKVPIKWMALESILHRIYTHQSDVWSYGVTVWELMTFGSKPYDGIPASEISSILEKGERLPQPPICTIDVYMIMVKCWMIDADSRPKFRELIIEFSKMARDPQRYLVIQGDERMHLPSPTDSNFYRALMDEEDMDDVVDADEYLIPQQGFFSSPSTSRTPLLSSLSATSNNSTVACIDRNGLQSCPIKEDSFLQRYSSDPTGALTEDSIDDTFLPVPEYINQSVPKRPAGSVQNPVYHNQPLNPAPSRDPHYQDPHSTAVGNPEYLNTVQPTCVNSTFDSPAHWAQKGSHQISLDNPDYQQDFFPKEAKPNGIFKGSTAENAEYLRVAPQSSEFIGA

Chain of insulin-like growth factor 1 receptor (IGF1R) (P08069 31-736): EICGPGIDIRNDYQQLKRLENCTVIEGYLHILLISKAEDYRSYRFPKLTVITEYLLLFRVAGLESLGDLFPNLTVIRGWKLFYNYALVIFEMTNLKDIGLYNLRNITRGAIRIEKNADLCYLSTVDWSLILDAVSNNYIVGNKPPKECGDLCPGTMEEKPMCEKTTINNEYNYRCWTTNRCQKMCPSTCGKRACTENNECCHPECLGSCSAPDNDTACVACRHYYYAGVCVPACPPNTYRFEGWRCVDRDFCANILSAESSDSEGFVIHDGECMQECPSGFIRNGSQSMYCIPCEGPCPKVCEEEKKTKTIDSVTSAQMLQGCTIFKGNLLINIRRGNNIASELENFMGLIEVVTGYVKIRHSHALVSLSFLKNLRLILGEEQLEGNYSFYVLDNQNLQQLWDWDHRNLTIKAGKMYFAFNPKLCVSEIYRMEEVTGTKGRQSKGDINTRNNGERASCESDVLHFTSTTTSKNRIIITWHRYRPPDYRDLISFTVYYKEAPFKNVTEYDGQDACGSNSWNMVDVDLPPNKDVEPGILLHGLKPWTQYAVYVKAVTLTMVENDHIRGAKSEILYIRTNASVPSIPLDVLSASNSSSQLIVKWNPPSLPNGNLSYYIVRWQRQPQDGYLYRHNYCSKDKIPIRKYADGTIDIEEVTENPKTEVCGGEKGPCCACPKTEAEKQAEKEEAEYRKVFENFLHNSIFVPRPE
Chain of insulin-like growth factor 1 receptor (IGF1R) (P08069 741-1367): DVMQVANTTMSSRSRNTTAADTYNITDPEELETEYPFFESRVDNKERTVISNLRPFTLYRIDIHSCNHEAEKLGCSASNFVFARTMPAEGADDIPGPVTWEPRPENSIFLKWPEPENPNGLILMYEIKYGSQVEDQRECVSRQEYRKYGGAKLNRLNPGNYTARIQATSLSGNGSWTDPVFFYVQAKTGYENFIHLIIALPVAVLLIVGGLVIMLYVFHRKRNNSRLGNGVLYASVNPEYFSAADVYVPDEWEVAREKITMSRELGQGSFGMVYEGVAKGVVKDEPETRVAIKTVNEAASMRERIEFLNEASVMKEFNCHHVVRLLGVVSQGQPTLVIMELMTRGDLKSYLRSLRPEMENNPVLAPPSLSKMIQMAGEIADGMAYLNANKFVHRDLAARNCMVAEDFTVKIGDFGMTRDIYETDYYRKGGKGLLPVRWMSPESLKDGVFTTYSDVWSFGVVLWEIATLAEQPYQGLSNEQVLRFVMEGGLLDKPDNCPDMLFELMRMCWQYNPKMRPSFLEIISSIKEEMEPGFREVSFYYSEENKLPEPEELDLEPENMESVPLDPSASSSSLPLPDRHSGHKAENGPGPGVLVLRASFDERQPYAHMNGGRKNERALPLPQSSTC
T1 sequence (P04626 23-1255): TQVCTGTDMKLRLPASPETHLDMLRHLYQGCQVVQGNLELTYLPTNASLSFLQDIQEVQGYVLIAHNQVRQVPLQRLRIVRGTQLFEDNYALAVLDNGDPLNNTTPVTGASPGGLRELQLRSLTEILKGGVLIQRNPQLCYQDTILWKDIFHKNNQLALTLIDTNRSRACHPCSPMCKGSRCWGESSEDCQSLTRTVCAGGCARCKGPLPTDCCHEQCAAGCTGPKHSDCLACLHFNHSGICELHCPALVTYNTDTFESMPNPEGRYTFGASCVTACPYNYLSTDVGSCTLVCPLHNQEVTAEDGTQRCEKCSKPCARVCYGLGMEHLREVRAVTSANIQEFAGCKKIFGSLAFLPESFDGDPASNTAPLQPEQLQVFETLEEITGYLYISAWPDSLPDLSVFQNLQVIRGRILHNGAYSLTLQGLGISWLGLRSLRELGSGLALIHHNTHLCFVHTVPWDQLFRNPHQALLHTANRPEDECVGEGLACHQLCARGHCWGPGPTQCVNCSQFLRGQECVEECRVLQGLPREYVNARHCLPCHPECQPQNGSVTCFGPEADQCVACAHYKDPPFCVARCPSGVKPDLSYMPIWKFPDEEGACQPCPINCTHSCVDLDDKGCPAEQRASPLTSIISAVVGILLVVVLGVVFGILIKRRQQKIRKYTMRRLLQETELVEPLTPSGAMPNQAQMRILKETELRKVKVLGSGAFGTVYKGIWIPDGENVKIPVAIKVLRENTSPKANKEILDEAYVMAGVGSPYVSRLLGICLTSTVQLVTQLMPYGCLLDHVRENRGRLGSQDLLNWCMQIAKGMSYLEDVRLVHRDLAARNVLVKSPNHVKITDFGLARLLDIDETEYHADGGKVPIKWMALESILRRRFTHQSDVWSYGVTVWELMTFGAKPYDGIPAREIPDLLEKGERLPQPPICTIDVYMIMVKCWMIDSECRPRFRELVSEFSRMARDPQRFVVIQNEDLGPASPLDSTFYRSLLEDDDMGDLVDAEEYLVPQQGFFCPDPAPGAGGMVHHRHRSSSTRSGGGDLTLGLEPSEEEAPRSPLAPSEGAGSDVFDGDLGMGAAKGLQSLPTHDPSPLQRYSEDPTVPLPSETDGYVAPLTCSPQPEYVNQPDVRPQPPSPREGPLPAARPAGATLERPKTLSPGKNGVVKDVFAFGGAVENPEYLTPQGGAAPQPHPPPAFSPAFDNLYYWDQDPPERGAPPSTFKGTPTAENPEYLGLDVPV

inhibition at 1 µM (HER2): 25 to 30% | inhibition at 1 µM [1]: 40% | inhibition at 1 µM (EGFR): 25 to 30%
Structure (SMILES): COc1ccccc1/C=C/c1nc(Nc2ccc3c(c2)OCO3)c2ccccc2n1 [IS20, N-(1,3-benzodioxol-5-yl)-2-[(E)-2-(2-methoxyphenyl)vinyl] quinazolin-4-amine]
